In ChEMBL document CHEMBL1212738, “Phenotypic and genotypic characterization of Enterobacteriaceae with decreased susceptibility to carbapenems: results from large hospital-based surveillance studies in China” (2010):
Values after ≈ are worked out from the molar mass of the structure shown.

What was measured:
[1] = tested on: Klebsiella pneumoniae; test: Antimicrobial activity against carbapenem-resistant Klebsiella pneumoniae CY75 deficient in SHV-11, DHA-1, ompK35/36 by CLSI method; format: functional
[2] = tested on: Klebsiella pneumoniae; test: Antimicrobial activity against Klebsiella pneumoniae FZ47T expressing IMP-8, TEM-1, CTX-M-14, qnrB2, aac(6')-Ib by CLSI method; format: functional
[3] = tested on: Escherichia coli; test: Antimicrobial activity against Escherichia coli ZJ86T expressing KPC-2 by CLSI method; format: functional
[4] = tested on: Escherichia coli; test: Antimicrobial activity against Escherichia coli C600 transconjugant WH77T expressing IMP-4, TEM-1, CTX-M-3, qnrS1 by CLSI method
[5] = tested on: Escherichia coli; test: Antimicrobial activity against Escherichia coli PU102T expressing TEM-1, CTX-M-14, CMY-2 by CLSI method; format: functional
[6] = tested on: Escherichia coli; test: Antimicrobial activity against carbapenem-resistant Escherichia coli PU102 deficient in TEM-1, CTX-M-14, CMY-2, aac(6')-Ib, ompC DEc, ompF by CLSI method; format: functional
[7] = tested on: Klebsiella pneumoniae; test: Antimicrobial activity against Klebsiella pneumoniae PU104T expressing TEM-1, CTX-M-15 by CLSI method; format: functional
[8] = tested on: Escherichia coli; test: Antimicrobial activity against carbapenem-resistant Escherichia coli PU60 deficient in TEM-1, CMY-2, ompC/F by CLSI method; format: functional
[9] = tested on: Klebsiella pneumoniae; test: Antimicrobial activity against Klebsiella pneumoniae FZ49T expressing IMP-8, TEM-1, CTX-M-14, qnrB2, aac(6')-Ib by CLSI method; format: functional
[10] = tested on: Enterobacter cloacae; test: Antimicrobial activity against carbapenem-resistant Enterobacter cloacae GX56 deficient in ompC and expressing low levels of ompF DE by CLSI method; format: functional
[11] = tested on: Klebsiella pneumoniae; test: Antimicrobial activity against carbapenem-resistant Klebsiella pneumoniae ZJ18 deficient in KPC-2, SHV-28, DHA-1, ompK35 by CLSI method; format: functional
[12] = tested on: Klebsiella pneumoniae; test: Antimicrobial activity against carbapenem-resistant Klebsiella pneumoniae GZ83 deficient in SHV-11, CTX-M-14, ompK35/36 by CLSI method; format: functional
[13] = tested on: Enterobacter cloacae; test: Antimicrobial activity against carbapenem-resistant Enterobacter cloacae RJ94 deficient in IMP-4, TEM-1, CTX-M-3, ompC by CLSI method; format: functional
[14] = tested on: Escherichia coli; test: Antimicrobial activity against Escherichia coli PU101T expressing CMY-2 by CLSI method; format: functional
[15] = tested on: Klebsiella pneumoniae; test: Antimicrobial activity against carbapenem-resistant Klebsiella pneumoniae PU5 deficient in SHV-12, DHA-1, aac(6')-Ib-cr, ompK35/36 by CLSI method; format: functional
[16] = tested on: Klebsiella pneumoniae; test: Antimicrobial activity against Klebsiella pneumoniae WH97 expressing SHV-33, aac(6')-Ib, ompK35 DE by CLSI method; format: functional
[17] = tested on: Escherichia coli; test: Antimicrobial activity against Escherichia coli ZJ87 expressing KPC-2, TEM-1, ompC by CLSI method; format: functional
[18] = tested on: Klebsiella pneumoniae; test: Antimicrobial activity against Klebsiella pneumoniae ZJ18T expressing KPC-2, DHA-1 by CLSI method; format: functional
[19] = tested on: Klebsiella pneumoniae; test: Antimicrobial activity against Klebsiella pneumoniae GZ64T expressing IMP-4 by CLSI method; format: functional
[20] = tested on: Enterobacter cloacae; test: Antimicrobial activity against carbapenem-resistant Enterobacter cloacae SZ93 deficient in ompC by CLSI method; format: functional
[21] = tested on: Escherichia coli; test: Antimicrobial activity against carbapenem-resistant Escherichia coli ZJ86 expressing KPC-2, TEM-1 with ompC loss by CLSI method
[22] = tested on: Escherichia coli; test: Antimicrobial activity against Escherichia coli C600 transconjugant SZ62T expressing IMP-4, qnrS1by CLSI method
[23] = tested on: Citrobacter freundii; test: Antimicrobial activity against Citrobacter freundii RJ78 expressing CMY-2, qnrA1, aac(6')-Ib-cr, ompC by CLSI method; format: functional
[24] = tested on: Escherichia coli; test: Antimicrobial activity against Escherichia coli HX74T expressing CTX-M-3 by CLSI method; format: functional
[25] = tested on: Enterobacter cloacae; test: Antimicrobial activity against carbapenem-resistant Enterobacter cloacae NJ91 deficient in CTX-M-14, ompC/F by CLSI method; format: functional
[26] = tested on: Klebsiella pneumoniae; test: Antimicrobial activity against carbapenem-resistant Klebsiella pneumoniae PU105 deficient TEM-1, SHV-12, CTX-M-14, DHA-1, qnrB10/B4-like, aac(6')-Ib-cr, ompK35/36 by CLSI method; format: functional
[27] = tested on: Escherichia coli; test: Antimicrobial activity against Escherichia coli C600 transconjugant XJ81T expressing TEM-1, SHV-12, aac(6')-Ib by CLSI method
[28] = tested on: Escherichia coli; test: Antimicrobial activity against carbapenem-resistant Escherichia coli PU101 deficient in TEM-1, CTX-M-14, CMY-2, ompC by CLSI method; format: functional
[29] = tested on: Enterobacter cloacae; test: Antimicrobial activity against carbapenem-resistant Enterobacter cloacae NJ90 deficient in CTX-M-14, ompC/F by CLSI method; format: functional
[30] = tested on: Klebsiella pneumoniae; test: Antimicrobial activity against carbapenem-resistant Klebsiella pneumoniae ZJ71 deficient in KPC-2, TEM-1, SHV-11, CTX-M-14, ompK35 by CLSI method; format: functional
[31] = tested on: Klebsiella pneumoniae; test: Antimicrobial activity against carbapenem-resistant Klebsiella pneumoniae PU3 deficient in DHA-1, aac(6')-Ib-cr, ompK35/36 by CLSI method; format: functional
[32] = tested on: Enterobacter cloacae; test: Antimicrobial activity against carbapenem-resistant Enterobacter cloacae NJ89 deficient in CTX-M-14, ompC/F by CLSI method; format: functional

Compound | MIC [1] | MIC [2] | MIC [3] | MIC [4] | MIC [6] | MIC [7] | MIC [8] | MIC [9] | MIC [10] | MIC [11] | MIC [12] | MIC [13] | MIC [14] | MIC [15] | MIC [16] | MIC [17] | MIC [18] | MIC [19] | MIC [20] | MIC [21] | also measured
C[C@@H](O)[C@H]1C(=O)N2C(C(=O)O)=C(S[C@@H]3CN[C@H](C(=O)N(C)C)C3)[C@H](C)[C@H]12 [MEROPENEM] | 8 µg/mL (≈ 20.9 µM) | 1 µg/mL (≈ 2.61 µM) | 8 µg/mL (≈ 20.9 µM) | 4 µg/mL (≈ 10.4 µM) | 8 µg/mL (≈ 20.9 µM) | 0.032 µg/mL (≈ 0.0834 µM) | 8 µg/mL (≈ 20.9 µM) | 1 µg/mL (≈ 2.61 µM) | 4 µg/mL (≈ 10.4 µM) | 8 µg/mL (≈ 20.9 µM) | 8 µg/mL (≈ 20.9 µM) | 8 µg/mL (≈ 20.9 µM) | 0.032 µg/mL (≈ 0.0834 µM) | 8 µg/mL (≈ 20.9 µM) | 2 µg/mL (≈ 5.22 µM) | 8 µg/mL (≈ 20.9 µM) | 1 µg/mL (≈ 2.61 µM) | 2 µg/mL (≈ 5.22 µM) | 0.125 µg/mL (≈ 0.326 µM) | 8 µg/mL (≈ 20.9 µM) | MIC [5]: 0.032 µg/mL (≈ 0.0834 µM); MIC [22]: 4 µg/mL (≈ 10.4 µM); MIC [23]: 2 µg/mL (≈ 5.22 µM); MIC [24]: 0.064 µg/mL (≈ 0.167 µM)
CC(C)(O/N=C(\C(=O)N[C@@H]1C(=O)N2C(C(=O)[O-])=C(C[n+]3ccccc3)CS[C@H]12)c1csc(N)n1)C(=O)O [CEFTAZIDIME] | 256 µg/mL (≈ 468 µM) | > 256 µg/mL | 32 µg/mL (≈ 58.5 µM) | > 256 µg/mL | 64 µg/mL (≈ 117 µM) | 64 µg/mL (≈ 117 µM) | 256 µg/mL (≈ 468 µM) | > 256 µg/mL | 256 µg/mL (≈ 468 µM) | 64 µg/mL (≈ 117 µM) | > 256 µg/mL | > 256 µg/mL | > 256 µg/mL | 256 µg/mL (≈ 468 µM) | > 256 µg/mL | 32 µg/mL (≈ 58.5 µM) | 16 µg/mL (≈ 29.3 µM) | 256 µg/mL (≈ 468 µM) | 0.5 µg/mL (≈ 0.915 µM) | 32 µg/mL (≈ 58.5 µM) | MIC [25]: > 256 µg/mL; MIC [26]: > 256 µg/mL; MIC [27]: 64 µg/mL (≈ 117 µM); MIC [28]: > 256 µg/mL; MIC [5]: 64 µg/mL (≈ 117 µM); MIC [29]: > 256 µg/mL; MIC [30]: 32 µg/mL (≈ 58.5 µM); MIC [31]: 128 µg/mL (≈ 234 µM); MIC [32]: > 256 µg/mL; MIC [22]: > 256 µg/mL; MIC [23]: 128 µg/mL (≈ 234 µM); MIC [24]: 256 µg/mL (≈ 468 µM)
CN(C)c1cc(NC(=O)CNC(C)(C)C)c(O)c2c1C[C@H]1C[C@H]3[C@H](N(C)C)C(O)=C(C(N)=O)C(=O)[C@@]3(O)C(O)=C1C2=O [TIGECYCLINE] | 1 µg/mL (≈ 1.71 µM) | 0.06 µg/mL (≈ 0.102 µM) | 0.25 µg/mL (≈ 0.427 µM) | 0.06 µg/mL (≈ 0.102 µM) | 0.25 µg/mL (≈ 0.427 µM) | 0.25 µg/mL (≈ 0.427 µM) | 0.125 µg/mL (≈ 0.213 µM) | 0.06 µg/mL (≈ 0.102 µM) | 4 µg/mL (≈ 6.83 µM) | 1 µg/mL (≈ 1.71 µM) | 0.5 µg/mL (≈ 0.854 µM) | 1 µg/mL (≈ 1.71 µM) | 0.25 µg/mL (≈ 0.427 µM) | 0.5 µg/mL (≈ 0.854 µM) | 0.5 µg/mL (≈ 0.854 µM) | 0.25 µg/mL (≈ 0.427 µM) | 0.06 µg/mL (≈ 0.102 µM) | 0.06 µg/mL (≈ 0.102 µM) | 1 µg/mL (≈ 1.71 µM) | 0.25 µg/mL (≈ 0.427 µM) | MIC [25]: 0.5 µg/mL (≈ 0.854 µM); MIC [26]: 2 µg/mL (≈ 3.41 µM); MIC [27]: 0.064 µg/mL (≈ 0.109 µM); MIC [28]: 0.064 µg/mL (≈ 0.109 µM); MIC [5]: 0.25 µg/mL (≈ 0.427 µM); MIC [29]: 0.5 µg/mL (≈ 0.854 µM); MIC [30]: 0.13 µg/mL (≈ 0.222 µM); MIC [31]: 0.25 µg/mL (≈ 0.427 µM); MIC [32]: 0.5 µg/mL (≈ 0.854 µM); MIC [22]: 0.13 µg/mL (≈ 0.222 µM); MIC [23]: 1 µg/mL (≈ 1.71 µM); MIC [24]: 0.125 µg/mL (≈ 0.213 µM)
C[C@@H](O)[C@H]1C(=O)N2C(C(=O)O)=C(SCCNC=N)C[C@H]12 [IMIPENEM ANHYDROUS] | 32 µg/mL (≈ 107 µM) | 4 µg/mL (≈ 13.4 µM) | 8 µg/mL (≈ 26.7 µM) | 4 µg/mL (≈ 13.4 µM) | 16 µg/mL (≈ 53.4 µM) | 0.25 µg/mL (≈ 0.835 µM) | 32 µg/mL (≈ 107 µM) | 4 µg/mL (≈ 13.4 µM) | 4 µg/mL (≈ 13.4 µM) | 16 µg/mL (≈ 53.4 µM) | 32 µg/mL (≈ 107 µM) | 8 µg/mL (≈ 26.7 µM) | 0.25 µg/mL (≈ 0.835 µM) | 16 µg/mL (≈ 53.4 µM) | 2 µg/mL (≈ 6.68 µM) | 8 µg/mL (≈ 26.7 µM) | 2 µg/mL (≈ 6.68 µM) | 2 µg/mL (≈ 6.68 µM) | 4 µg/mL (≈ 13.4 µM) | 8 µg/mL (≈ 26.7 µM) | MIC [25]: 16 µg/mL (≈ 53.4 µM); MIC [26]: 32 µg/mL (≈ 107 µM); MIC [27]: 0.25 µg/mL (≈ 0.835 µM); MIC [28]: 32 µg/mL (≈ 107 µM); MIC [29]: 16 µg/mL (≈ 53.4 µM); MIC [30]: 16 µg/mL (≈ 53.4 µM); MIC [31]: 32 µg/mL (≈ 107 µM); MIC [32]: 16 µg/mL (≈ 53.4 µM); MIC [22]: 4 µg/mL (≈ 13.4 µM); MIC [23]: 8 µg/mL (≈ 26.7 µM)
